Series [1] deals with Alpha-synuclein (Homo sapiens) (UniProt P37840). Kind of series: Binding affinity to human alpha-synuclein expressed in Escherichia coli BL21(DE3) assessed as compound-protein complex formation at ratio of 1:1 incubated at compound:protein ratio of 10:1 for 3 hrs by ESI-MS spectrum analysis.
Series [2] is described as follows: Cytotoxicity against preformed fibrils-treated mouse TH-positive dopaminergic neurons at 0.1 to 10 uM incubated for 7 days by immunostaining analysis. The format is toxicity, cell-based. Conditions: neuron, 168 h, dose 0.1-10 µM, time 7 day.

The source made the active and inactive calls. The calls are words filed in the database; no cut-off is given here.

In the case of `CN(C)C(=N)NCCS(=O)(=O)O`, the outcome in series [1] was Active. Moreover, the Activity result in series [2] is recorded as “Non-Toxic”.

These data come from ChEMBL document CHEMBL5143630, “α-Synuclein binding activity of the plant growth promoter asterubine” (Bioorg Med Chem Lett, 2022).
